{"source": "ChEMBL document CHEMBL4219257", "about": "“Novel 8-hydroxyquinoline derivatives targeting β-amyloid aggregation, metal chelation and oxidative stress against Alzheimer's disease” (Bioorg Med Chem, 2018)", "key": {"[1]": {"assay": "Metal chelating activity assessed as compound-Cu2+ complex formation at 50 uM measured after 20 mins by fluorescence spectroscopic method"}, "Mus musculus [2]": {"tested_on": "Mus musculus", "assay": "Acute toxicity in Kunming mouse assessed as fur sleekness up to 2000 mg/kg, po measured after 4 hrs", "assay_type": "organism-based", "conditions": "in vivo"}, "[3]": {"assay": "Metal chelating activity assessed as compound-Fe3+ complex formation at 50 uM measured after 20 mins by fluorescence spectroscopic method"}, "[4]": {"assay": "Metal chelating activity assessed as mole fraction of compound required to show 2.3:1 stoichiometry for compound-Cu2+ complex at 50 uM by Job's plot analysis"}, "[5]": {"assay": "Antioxidant activity assessed as trolox equivalents of AAPH radical scavenging activity at 10 uM preincubated for 15 mins followed by AAPH addition measured every minute for 120 mins by ORAC-FL assay", "assay_type": "functional"}, "Mus musculus [6]": {"tested_on": "Mus musculus", "assay": "Nephrotoxicity in Kunming mouse up to 2000 mg/kg, po measured after 14 days by macroscopic method", "assay_type": "toxicity, organism-based", "conditions": "in vivo, 336 h"}, "PC-12 [7]": {"tested_on": "PC-12", "assay": "Inhibition of H2O2-induced ROS level in rat PC12 cells assessed as mean fluorescence intensity at 10 uM preincubated for 4 hrs followed by H2O2 addition measured after 24 hrs by DCFH-DA staining based flow cytometry (reference value: 16947)", "assay_type": "functional"}, "PC-12 [8]": {"tested_on": "PC-12", "assay": "Cytoprotection against H2O2-induced apoptosis in rat PC12 cells assessed as live cells at 2.5 uM preincubated for 4 hrs followed by H2O2 addition measured after 24 hrs by Annexin V-FITC/propidium iodide staining based flow cytometry (reference value: 57%)", "assay_type": "functional"}, "Mus musculus [9]": {"tested_on": "Mus musculus", "assay": "Acute toxicity in Kunming mouse assessed as mortality up to 2000 mg/kg, po measured after 14 days", "assay_type": "organism-based", "conditions": "in vivo, 336 h"}, "Mus musculus [10]": {"tested_on": "Mus musculus", "assay": "Acute toxicity in Kunming mouse assessed as death up to 2000 mg/kg, po measured after 4 hrs", "assay_type": "organism-based", "conditions": "in vivo"}, "[11]": {"target": "T1, Amyloid-beta precursor protein (Homo sapiens, UniProt P05067)", "T1 sequence (P05067 whole entry)": "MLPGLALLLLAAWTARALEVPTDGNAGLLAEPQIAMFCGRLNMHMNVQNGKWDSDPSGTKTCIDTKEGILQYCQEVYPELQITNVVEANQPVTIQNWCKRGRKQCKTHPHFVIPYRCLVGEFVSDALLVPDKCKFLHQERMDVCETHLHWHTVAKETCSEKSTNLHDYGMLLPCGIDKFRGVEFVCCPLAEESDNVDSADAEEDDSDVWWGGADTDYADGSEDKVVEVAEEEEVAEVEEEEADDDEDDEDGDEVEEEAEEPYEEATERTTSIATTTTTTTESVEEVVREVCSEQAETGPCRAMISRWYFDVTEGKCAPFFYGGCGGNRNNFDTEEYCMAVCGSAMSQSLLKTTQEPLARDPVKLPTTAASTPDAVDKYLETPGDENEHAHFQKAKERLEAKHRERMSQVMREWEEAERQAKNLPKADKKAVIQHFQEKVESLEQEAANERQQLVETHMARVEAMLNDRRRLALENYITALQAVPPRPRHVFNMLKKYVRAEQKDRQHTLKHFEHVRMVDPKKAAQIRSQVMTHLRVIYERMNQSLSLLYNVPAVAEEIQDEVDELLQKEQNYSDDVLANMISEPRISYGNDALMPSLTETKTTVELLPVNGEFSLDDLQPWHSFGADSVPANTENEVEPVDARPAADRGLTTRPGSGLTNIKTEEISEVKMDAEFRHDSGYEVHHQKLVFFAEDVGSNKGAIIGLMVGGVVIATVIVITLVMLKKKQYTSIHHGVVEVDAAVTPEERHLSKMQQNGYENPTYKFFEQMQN", "assay": "Inhibition of HFIP-pretreated amyloid beta (1 to 42) (unknown origin) self-induced aggregation at 10 uM after 48 hrs by thioflavin T-based fluorometric assay relative to control"}, "[12]": {"assay": "Metal chelating activity assessed as compound-Cu2+ complex formation by measuring maximum absorption wavelength at 50 uM measured after 30 mins by UV-vis spectrophotometric method (reference value: 241 nanometer)"}, "PC-12 [13]": {"tested_on": "PC-12", "assay": "Inhibition of H2O2-induced ROS level in rat PC12 cells assessed as mean fluorescence intensity at 2.5 uM preincubated for 4 hrs followed by H2O2 addition measured after 24 hrs by DCFH-DA staining based flow cytometry (reference value: 16947)", "assay_type": "functional"}, "[14]": {"assay": "Metal chelating activity assessed as compound-Fe2+ complex formation by measuring maximum absorption wavelength at 50 uM measured after 30 mins by UV-vis spectrophotometric method (reference value: 241 nanometer)"}, "PC-12 [15]": {"tested_on": "PC-12", "assay": "Cytoprotection against H2O2-induced apoptosis in rat PC12 cells assessed as early apoptotic cells at 10 uM preincubated for 4 hrs followed by H2O2 addition measured after 24 hrs by Annexin V-FITC/propidium iodide staining based flow cytometry (reference value: 1.5%)", "assay_type": "functional"}, "PC-12 [16]": {"tested_on": "PC-12", "assay": "Cytoprotection against H2O2-induced apoptosis in rat PC12 cells assessed as necrotic cells at 2.5 uM preincubated for 4 hrs followed by H2O2 addition measured after 24 hrs by Annexin V-FITC/propidium iodide staining based flow cytometry (reference value: 8.9%)", "assay_type": "functional"}, "Mus musculus [17]": {"tested_on": "Mus musculus", "assay": "Acute toxicity in Kunming mouse assessed as effect on food consumption up to 2000 mg/kg, po measured after 4 hrs", "assay_type": "organism-based", "conditions": "in vivo"}, "[18]": {"assay": "Metal chelating activity assessed as compound-Zn2+ complex formation by measuring maximum absorption wavelength at 50 uM measured after 30 mins by UV-vis spectrophotometric method (reference value: 241 nanometer)"}, "PC-12 [19]": {"tested_on": "PC-12", "assay": "Cytoprotection against H2O2-induced apoptosis in rat PC12 cells assessed as late apoptotic cells at 2.5 uM preincubated for 4 hrs followed by H2O2 addition measured after 24 hrs by Annexin V-FITC/propidium iodide staining based flow cytometry (reference value: 32.6%)", "assay_type": "functional"}, "PC-12 [20]": {"tested_on": "PC-12", "assay": "Cytoprotection against rotenone-induced oxidative stress in rat PC12 cells assessed as increase in cell viability up to 10 uM after 24 hrs by MTT assay", "assay_type": "functional, cell-based"}, "[21]": {"assay": "Inhibition of Zn2+ - induced amyloid beta (1 to 42) (unknown origin) aggregation at 50 uM after 24 hrs by thioflavin T-based fluorometric assay relative to control"}, "[22]": {"assay": "Metal chelating activity assessed as compound-Fe2+ complex formation at 50 uM measured after 20 mins by fluorescence spectroscopic method"}, "PC-12 [23]": {"tested_on": "PC-12", "assay": "Cytoprotection against oligomycin A-induced oxidative stress in rat PC12 cells assessed as increase in cell viability up to 10 uM after 24 hrs by MTT assay", "assay_type": "functional, cell-based"}, "[24]": {"assay": "Metal chelating activity assessed as compound-Zn2+ complex formation at 50 uM measured after 20 mins by fluorescence spectroscopic method"}, "[25]": {"assay": "Metal chelating activity assessed as mole fraction of compound required to show 2:1 stoichiometry for compound-Zn2+ complex at 50 uM by Job's plot analysis"}, "PC-12 [26]": {"tested_on": "PC-12", "assay": "Cytoprotection against H2O2-induced apoptosis in rat PC12 cells assessed as early apoptotic cells at 2.5 uM preincubated for 4 hrs followed by H2O2 addition measured after 24 hrs by Annexin V-FITC/propidium iodide staining based flow cytometry (reference value: 1.5%)", "assay_type": "functional"}, "PC-12 [27]": {"tested_on": "PC-12", "assay": "Cytoprotection against H2O2-induced apoptosis in rat PC12 cells assessed as late apoptotic cells at 5 uM preincubated for 4 hrs followed by H2O2 addition measured after 24 hrs by Annexin V-FITC/propidium iodide staining based flow cytometry (reference value: 32.6%)", "assay_type": "functional"}, "Mus musculus [28]": {"tested_on": "Mus musculus", "assay": "Cardiotoxicity in Kunming mouse up to 2000 mg/kg, po measured after 14 days by macroscopic method", "assay_type": "toxicity, organism-based", "conditions": "in vivo, 336 h"}, "Mus musculus [29]": {"tested_on": "Mus musculus", "assay": "Acute toxicity in Kunming mouse assessed as effect on water consumption up to 2000 mg/kg, po measured after 4 hrs", "assay_type": "organism-based", "conditions": "in vivo"}, "PC-12 [30]": {"tested_on": "PC-12", "assay": "Cytoprotection against H2O2-induced apoptosis in rat PC12 cells assessed as live cells at 5 uM preincubated for 4 hrs followed by H2O2 addition measured after 24 hrs by Annexin V-FITC/propidium iodide staining based flow cytometry (reference value: 57%)", "assay_type": "functional"}, "[31]": {"target": "T1, Amyloid-beta precursor protein", "assay": "Inhibition of HFIP-pretreated amyloid beta (1 to 42) (unknown origin) self-induced aggregation after 48 hrs by thioflavin T-based fluorometric assay"}, "PC-12 [32]": {"tested_on": "PC-12", "assay": "Cytoprotection against H2O2-induced apoptosis in rat PC12 cells assessed as necrotic cells at 5 uM preincubated for 4 hrs followed by H2O2 addition measured after 24 hrs by Annexin V-FITC/propidium iodide staining based flow cytometry (reference value: 8.9%)", "assay_type": "functional"}, "[33]": {"assay": "Metal chelating activity assessed as compound-Fe3+ complex formation at 50 uM measured after 30 mins by UV-vis spectrophotometric method"}, "Mus musculus [34]": {"tested_on": "Mus musculus", "assay": "Acute toxicity in Kunming mouse assessed as effect on body weight up to 2000 mg/kg, po measured after 4 hrs", "assay_type": "organism-based", "conditions": "in vivo"}, "Mus musculus [35]": {"tested_on": "Mus musculus", "assay": "Hepatotoxicity in Kunming mouse up to 2000 mg/kg, po measured after 14 days by macroscopic method", "assay_type": "toxicity, organism-based", "conditions": "in vivo, 336 h"}, "PC-12 [36]": {"tested_on": "PC-12", "assay": "Cytoprotection against H2O2-induced oxidative stress in rat PC12 cells assessed as increase in cell viability after 24 hrs by MTT assay", "assay_type": "functional, cell-based"}}, "note": "pIC50: −log10 of the molar value. Calls of active or inactive are those of the source. The rule behind the calls is not given here.", "data": [{"smiles": "O=C(CCc1ccccc1Cl)N1CCN(Cc2ccc(O)c3ncccc23)CC1", "values": [{"measurement": "Activity", "setting": "[1]", "result": "Active"}, {"measurement": "Activity", "setting": "Mus musculus [2]", "result": "Non-Toxic"}, {"measurement": "Activity", "setting": "[3]", "result": "Active"}, {"measurement": "Activity", "setting": "[4]", "result": 0.7, "unit": "molar ratio"}, {"measurement": "Activity", "setting": "[5]", "result": 2.63, "unit": "equiv"}, {"measurement": "Activity", "setting": "Mus musculus [6]", "result": "Non-Toxic"}, {"measurement": "Flu intensity", "setting": "PC-12 [7]", "result": 9392}, {"measurement": "Activity", "setting": "PC-12 [8]", "result": 79.9, "unit": "%"}, {"measurement": "Activity", "setting": "Mus musculus [9]", "result": "Non-Toxic"}, {"measurement": "Activity", "setting": "Mus musculus [10]", "result": "Non-Toxic"}, {"measurement": "inhibition", "setting": "[11]", "result": 65.8, "unit": "%"}, {"measurement": "Activity", "setting": "[12]", "result": 261, "unit": "nm"}, {"measurement": "Flu intensity", "setting": "PC-12 [13]", "result": 14556}, {"measurement": "Activity", "setting": "[14]", "result": 265, "unit": "nm"}, {"measurement": "Activity", "setting": "PC-12 [15]", "result": 2, "unit": "%"}, {"measurement": "Activity", "setting": "PC-12 [16]", "result": 3.7, "unit": "%"}, {"measurement": "Activity", "setting": "Mus musculus [17]", "result": "Non-Toxic"}, {"measurement": "Activity", "setting": "[18]", "result": 260, "unit": "nm"}, {"measurement": "Activity", "setting": "PC-12 [19]", "result": 14.4, "unit": "%"}, {"measurement": "Activity", "setting": "PC-12 [20]", "result": "Active"}, {"measurement": "inhibition", "setting": "[21]", "result": 73.3, "unit": "%"}, {"measurement": "Activity", "setting": "[22]", "result": "Active"}, {"measurement": "Activity", "setting": "PC-12 [23]", "result": "Active"}, {"measurement": "Activity", "setting": "[24]", "result": "Active"}, {"measurement": "Activity", "setting": "[25]", "result": 0.66, "unit": "molar ratio"}, {"measurement": "Activity", "setting": "PC-12 [26]", "result": 2.1, "unit": "%"}, {"measurement": "Activity", "setting": "PC-12 [27]", "result": 8, "unit": "%"}, {"measurement": "Activity", "setting": "Mus musculus [28]", "result": "Non-Toxic"}, {"measurement": "Activity", "setting": "Mus musculus [29]", "result": "Non-Toxic"}, {"measurement": "Activity", "setting": "PC-12 [30]", "result": 88.3, "unit": "%"}, {"measurement": "pIC50", "setting": "[31]", "result": 5.25}, {"measurement": "Activity", "setting": "PC-12 [32]", "result": 1.4, "unit": "%"}, {"measurement": "Activity", "setting": "[33]", "result": "Active"}, {"measurement": "Activity", "setting": "Mus musculus [34]", "result": "Non-Toxic"}, {"measurement": "Activity", "setting": "Mus musculus [35]", "result": "Non-Toxic"}, {"measurement": "Activity", "setting": "PC-12 [36]", "result": "Dose-dependent effect"}]}]}
